Assays:
Assay in all cases: relative viability (nuclei count vs DMSO), 5 days (fraction); higher = more cells survive
ABC-1 = system: ABC-1
How it was run: (§1)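 One day after seeding in 1536-well plates, lung cancer cell lines were dosed by pin tool. Dosing was either single-drug or a fixed anchor-drug dose plus five library-drug doses (not always all listed) in √10 steps. After 5 days, nuclei were stained in one fix-and-stain step and counted on 4× images, and relative viability is the nuclei count of treated wells over that of vehicle wells, given as the median of duplicate plates.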

NCI-H23 = system: NCI-H23
How it was run: as §1

LCLC-103H = system: LCLC-103H
How it was run: as §1

NCI-H1975 = system: NCI-H1975
How it was run: as §1

IA-LM = system: IA-LM
How it was run: as §1

EBC-1 = system: EBC-1
How it was run: as §1

NCI-H647 = system: NCI-H647
How it was run: as §1

HCC-78 = system: HCC-78
How it was run: as §1

RERF-LC-KJ = system: RERF-LC-KJ
How it was run: as §1

LOU-NH91 = system: LOU-NH91
How it was run: as §1

NCI-H1792 = system: NCI-H1792
How it was run: as §1

EPLC-272H = system: EPLC-272H
How it was run: as §1

NCI-H1651 = system: NCI-H1651
How it was run: as §1

201T = system: 201T
How it was run: as §1

NCI-H1437 = system: NCI-H1437
How it was run: as §1

NCI-H1915 = system: NCI-H1915
How it was run: as §1

UMC-11 = system: UMC-11
How it was run: as §1

EMC-BAC-2 = system: EMC-BAC-2
How it was run: as §1

SK-LU-1 = system: SK-LU-1
How it was run: as §1

NCI-H2405 = system: NCI-H2405
How it was run: as §1

NCI-H2023 = system: NCI-H2023
How it was run: as §1

NCI-H661 = system: NCI-H661
How it was run: as §1

Work on CCCCCCCCCCCC1=C(O)C(=O)C=C(O)C1=O [Embelin] + CC(C)C[C@H](NC(=O)[C@H](Cc1ccccc1)NC(=O)c1cnccn1)B(O)O [Bortezomib] (partner 0.002 µM) yielded a relative viability (ABC-1; first compound 0.08 µM) of 0.299, a relative viability (ABC-1; first compound 0.8 µM) of 0.371 and a relative viability (ABC-1; first compound 2.53 µM) of 0.252. For the same compound, the relative viability (ABC-1; first compound 8 µM) was 0.257, the relative viability (NCI-H23; first compound 0.08 µM) was 0.971 and the relative viability (NCI-H23; first compound 0.8 µM) was 1.06. It also gave a relative viability (NCI-H23; first compound 2.53 µM) of 1.19, a relative viability (NCI-H23; first compound 8 µM) of 1.23 and a relative viability (LCLC-103H; first compound 0.08 µM) of 1. It also gave a relative viability (LCLC-103H; first compound 0.8 µM) of 1.14, a relative viability (LCLC-103H; first compound 2.53 µM) of 1.07 and a relative viability (LCLC-103H; first compound 8 µM) of 0.885. For the same compound, the relative viability (NCI-H1975; first compound 0.08 µM) was 0.45, the relative viability (NCI-H1975; first compound 0.8 µM) was 0.432 and the relative viability (NCI-H1975; first compound 2.53 µM) was 0.372. The relative viability (NCI-H1975; first compound 8 µM) was 0.367, the relative viability (IA-LM; first compound 0.08 µM) was 0.769 and the relative viability (IA-LM; first compound 0.8 µM) was 0.904. The relative viability (IA-LM; first compound 2.53 µM) was 0.913, the relative viability (IA-LM; first compound 8 µM) was 0.381 and the relative viability (EBC-1; first compound 0.08 µM) was 0.485. It also gave a relative viability (EBC-1; first compound 0.8 µM) of 0.678, a relative viability (EBC-1; first compound 2.53 µM) of 0.565 and a relative viability (EBC-1; first compound 8 µM) of 0.545. The relative viability (NCI-H647; first compound 0.08 µM) was 1.08, the relative viability (NCI-H647; first compound 0.8 µM) was 1.28 and the relative viability (NCI-H647; first compound 2.53 µM) was 1.43. The relative viability (NCI-H647; first compound 8 µM) was 0.929, the relative viability (HCC-78; first compound 0.08 µM) was 0.605 and the relative viability (HCC-78; first compound 0.8 µM) was 0.532. For the same compound, the relative viability (HCC-78; first compound 2.53 µM) was 0.555, the relative viability (HCC-78; first compound 8 µM) was 0.438 and the relative viability (RERF-LC-KJ; first compound 0.08 µM) was 0.984. For the same compound, the relative viability (RERF-LC-KJ; first compound 0.8 µM) was 1.31, the relative viability (RERF-LC-KJ; first compound 2.53 µM) was 1.3 and the relative viability (RERF-LC-KJ; first compound 8 µM) was 1.19. The relative viability (LOU-NH91; first compound 0.08 µM) was 0.554, the relative viability (LOU-NH91; first compound 0.8 µM) was 0.578 and the relative viability (LOU-NH91; first compound 2.53 µM) was 0.504. For the same compound, the relative viability (LOU-NH91; first compound 8 µM) was 0.509, the relative viability (NCI-H1792; first compound 0.08 µM) was 0.93 and the relative viability (NCI-H1792; first compound 0.8 µM) was 1. It also gave a relative viability (NCI-H1792; first compound 2.53 µM) of 1.09, a relative viability (NCI-H1792; first compound 8 µM) of 1.03 and a relative viability (EPLC-272H; first compound 0.08 µM) of 0.804. For the same compound, the relative viability (EPLC-272H; first compound 0.8 µM) was 1.07, the relative viability (EPLC-272H; first compound 2.53 µM) was 1.17 and the relative viability (EPLC-272H; first compound 8 µM) was 0.86. It also gave a relative viability (NCI-H1651; first compound 0.08 µM) of 0.958, a relative viability (NCI-H1651; first compound 0.8 µM) of 0.92 and a relative viability (NCI-H1651; first compound 2.53 µM) of 1.01. For the same compound, the relative viability (NCI-H1651; first compound 8 µM) was 1.02, the relative viability (201T; first compound 0.08 µM) was 1.06 and the relative viability (201T; first compound 0.8 µM) was 1.17. For the same compound, the relative viability (201T; first compound 2.53 µM) was 1.09, the relative viability (201T; first compound 8 µM) was 1.09 and the relative viability (NCI-H1437; first compound 0.08 µM) was 0.602. The relative viability (NCI-H1437; first compound 0.8 µM) was 0.528, the relative viability (NCI-H1437; first compound 2.53 µM) was 0.618 and the relative viability (NCI-H1437; first compound 8 µM) was 0.347. For the same compound, the relative viability (NCI-H1915; first compound 0.08 µM) was 0.951, the relative viability (NCI-H1915; first compound 0.8 µM) was 1.02 and the relative viability (NCI-H1915; first compound 2.53 µM) was 1.13. It also gave a relative viability (NCI-H1915; first compound 8 µM) of 0.998, a relative viability (UMC-11; first compound 0.08 µM) of 0.771 and a relative viability (UMC-11; first compound 0.8 µM) of 0.966. The relative viability (UMC-11; first compound 2.53 µM) was 0.896, the relative viability (UMC-11; first compound 8 µM) was 0.547 and the relative viability (EMC-BAC-2; first compound 0.08 µM) was 1.04. For the same compound, the relative viability (EMC-BAC-2; first compound 0.8 µM) was 1.18, the relative viability (EMC-BAC-2; first compound 2.53 µM) was 1.21 and the relative viability (EMC-BAC-2; first compound 8 µM) was 1.09. It also gave a relative viability (SK-LU-1; first compound 0.08 µM) of 1.23, a relative viability (SK-LU-1; first compound 0.8 µM) of 1.95 and a relative viability (SK-LU-1; first compound 2.53 µM) of 0.982. It also gave a relative viability (SK-LU-1; first compound 8 µM) of 0.929, a relative viability (NCI-H2405; first compound 0.08 µM) of 1.03 and a relative viability (NCI-H2405; first compound 0.8 µM) of 1.03. It also gave a relative viability (NCI-H2405; first compound 2.53 µM) of 1.02, a relative viability (NCI-H2405; first compound 8 µM) of 1.01 and a relative viability (NCI-H2023; first compound 0.08 µM) of 0.915. It also gave a relative viability (NCI-H2023; first compound 0.8 µM) of 1.12, a relative viability (NCI-H2023; first compound 2.53 µM) of 1.07 and a relative viability (NCI-H2023; first compound 8 µM) of 0.578. For the same compound, the relative viability (NCI-H661; first compound 0.08 µM) was 0.961, the relative viability (NCI-H661; first compound 0.8 µM) was 0.867 and the relative viability (NCI-H661; first compound 2.53 µM) was 0.997. For the same compound, the relative viability (NCI-H661; first compound 8 µM) was 0.78.

— the supplement of paper PMC10307832
